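Where inhibition never reached the appropriate level, the endpoint shown equals the highest concentration tested. Otherwise, values were interpolated linearly from a five-concentration, 48-hour dose response in 96-well plates. GI50 marks 50% less growth. Definition used: TGI = concentration required for complete inhibition of growth.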
Columns and labels:
Experiment in all cases: NCI-60 cell line screen, 48 h
OVCAR-8 ovarian = system: OVCAR-8 ovarian
NCI-H522 lung = system: NCI-H522 lung
SK-MEL-5 melanoma = system: SK-MEL-5 melanoma
PC-3 prostate = system: PC-3 prostate
MDA-MB-231 breast = system: MDA-MB-231 breast
HCT-116 colon = system: HCT-116 colon
OVCAR-3 ovarian = system: OVCAR-3 ovarian
UACC-257 melanoma = system: UACC-257 melanoma
MALME-3M melanoma = system: MALME-3M melanoma
IGROV1 ovarian = system: IGROV1 ovarian
K-562 leukemia = system: K-562 leukemia
CCRF-CEM leukemia = system: CCRF-CEM leukemia
SF-539 CNS = system: SF-539 CNS
OVCAR-5 ovarian = system: OVCAR-5 ovarian
HT29 colon = system: HT29 colon
A549 NSCLC = system: A549 NSCLC
SK-MEL-28 melanoma = system: SK-MEL-28 melanoma
SF-268 CNS = system: SF-268 CNS
SR leukemia = system: SR leukemia
SW-620 colon = system: SW-620 colon
SF-295 CNS = system: SF-295 CNS
LOX IMVI melanoma = system: LOX IMVI melanoma
T-47D breast = system: T-47D breast
NCI-H460 lung = system: NCI-H460 lung
KM12 colon = system: KM12 colon
UO-31 renal = system: UO-31 renal
HCT-15 colon = system: HCT-15 colon
EKVX NSCLC = system: EKVX NSCLC
BT-549 breast = system: BT-549 breast
SN12C renal = system: SN12C renal
M14 melanoma = system: M14 melanoma
SK-OV-3 ovarian = system: SK-OV-3 ovarian
COLO 205 colon = system: COLO 205 colon
RPMI-8226 leukemia = system: RPMI-8226 leukemia
SK-MEL-2 melanoma = system: SK-MEL-2 melanoma
CAKI-1 renal = system: CAKI-1 renal
U251 CNS = system: U251 CNS
A498 renal = system: A498 renal
TK-10 renal = system: TK-10 renal
786-0 renal = system: 786-0 renal
DU-145 prostate = system: DU-145 prostate
HCC-2998 colon = system: HCC-2998 colon
NCI/ADR-RES ovarian = system: NCI/ADR-RES ovarian
HOP-92 NSCLC = system: HOP-92 NSCLC
MDA-MB-435 = system: MDA-MB-435
OVCAR-4 ovarian = system: OVCAR-4 ovarian
HS 578T breast = system: HS 578T breast
MOLT-4 leukemia = system: MOLT-4 leukemia
RXF 393 renal = system: RXF 393 renal
MCF7 breast = system: MCF7 breast
UACC-62 melanoma = system: UACC-62 melanoma
HOP-62 NSCLC = system: HOP-62 NSCLC
SNB-19 CNS = system: SNB-19 CNS
ACHN renal = system: ACHN renal
NCI-H226 lung = system: NCI-H226 lung
HL-60(TB) leukemia = system: HL-60(TB) leukemia
NCI-H23 lung = system: NCI-H23 lung

CSC(=NC#N)S/C=C/C(=O)c1cccc2ccccc12
GI50 (OVCAR-8 ovarian): 31.9 µM
TGI (OVCAR-8 ovarian): > 100 µM
GI50 (NCI-H522 lung): 28.5 µM
TGI (NCI-H522 lung): 81.4 µM
GI50 (SK-MEL-5 melanoma): 23.1 µM
TGI (SK-MEL-5 melanoma): 55.4 µM
GI50 (PC-3 prostate): 31.3 µM
TGI (PC-3 prostate): 99 µM
GI50 (MDA-MB-231 breast): 26.2 µM
TGI (MDA-MB-231 breast): 75.4 µM
GI50 (HCT-116 colon): 40 µM
TGI (HCT-116 colon): > 100 µM
GI50 (OVCAR-3 ovarian): 18 µM
TGI (OVCAR-3 ovarian): 48.2 µM
GI50 (UACC-257 melanoma): 21.3 µM
TGI (UACC-257 melanoma): 47.2 µM
GI50 (MALME-3M melanoma): 15.8 µM
TGI (MALME-3M melanoma): 38.6 µM
GI50 (IGROV1 ovarian): 21 µM
TGI (IGROV1 ovarian): 48.1 µM
GI50 (K-562 leukemia): 29.2 µM
TGI (K-562 leukemia): > 100 µM
GI50 (CCRF-CEM leukemia): 27.1 µM
TGI (CCRF-CEM leukemia): > 100 µM
GI50 (SF-539 CNS): 17.6 µM
TGI (SF-539 CNS): 68.2 µM
GI50 (OVCAR-5 ovarian): 28.3 µM
TGI (OVCAR-5 ovarian): 82.9 µM
GI50 (HT29 colon): 53.9 µM
TGI (HT29 colon): > 100 µM
GI50 (A549 NSCLC): 29.3 µM
TGI (A549 NSCLC): > 100 µM
GI50 (SK-MEL-28 melanoma): 28.7 µM
TGI (SK-MEL-28 melanoma): 73.4 µM
GI50 (SF-268 CNS): 36.6 µM
TGI (SF-268 CNS): > 100 µM
GI50 (SR leukemia): 4.71 µM
TGI (SR leukemia): > 100 µM
GI50 (SW-620 colon): 36.9 µM
TGI (SW-620 colon): > 100 µM
GI50 (SF-295 CNS): > 100 µM
TGI (SF-295 CNS): > 100 µM
GI50 (LOX IMVI melanoma): 20.5 µM
TGI (LOX IMVI melanoma): > 100 µM
GI50 (T-47D breast): 8.59 µM
TGI (T-47D breast): > 100 µM
GI50 (NCI-H460 lung): 37.8 µM
TGI (NCI-H460 lung): > 100 µM
GI50 (KM12 colon): 29.1 µM
TGI (KM12 colon): > 100 µM
GI50 (UO-31 renal): 26 µM
TGI (UO-31 renal): 73.5 µM
GI50 (HCT-15 colon): 27.4 µM
TGI (HCT-15 colon): > 100 µM
GI50 (EKVX NSCLC): 26.4 µM
TGI (EKVX NSCLC): > 100 µM
GI50 (BT-549 breast): 20.1 µM
TGI (BT-549 breast): 56 µM
GI50 (SN12C renal): 31.1 µM
TGI (SN12C renal): > 100 µM
GI50 (M14 melanoma): 29.9 µM
TGI (M14 melanoma): > 100 µM
GI50 (SK-OV-3 ovarian): 61.1 µM
TGI (SK-OV-3 ovarian): > 100 µM
GI50 (COLO 205 colon): 34.3 µM
TGI (COLO 205 colon): > 100 µM
GI50 (RPMI-8226 leukemia): 25 µM
TGI (RPMI-8226 leukemia): > 100 µM
GI50 (SK-MEL-2 melanoma): 34.3 µM
TGI (SK-MEL-2 melanoma): > 100 µM
GI50 (CAKI-1 renal): 14.7 µM
TGI (CAKI-1 renal): 33.9 µM
GI50 (U251 CNS): 31.3 µM
TGI (U251 CNS): > 100 µM
GI50 (A498 renal): 40.2 µM
TGI (A498 renal): > 100 µM
GI50 (TK-10 renal): 22.2 µM
TGI (TK-10 renal): 45.4 µM
GI50 (786-0 renal): 16.2 µM
TGI (786-0 renal): 43.5 µM
GI50 (DU-145 prostate): 39.1 µM
TGI (DU-145 prostate): > 100 µM
GI50 (HCC-2998 colon): 63 µM
TGI (HCC-2998 colon): > 100 µM
GI50 (NCI/ADR-RES ovarian): 40.8 µM
TGI (NCI/ADR-RES ovarian): > 100 µM
GI50 (HOP-92 NSCLC): 19.3 µM
TGI (HOP-92 NSCLC): 66.6 µM
GI50 (MDA-MB-435): 24.5 µM
TGI (MDA-MB-435): 85.5 µM
GI50 (OVCAR-4 ovarian): 47.9 µM
TGI (OVCAR-4 ovarian): > 100 µM
GI50 (HS 578T breast): 40.4 µM
TGI (HS 578T breast): > 100 µM
GI50 (MOLT-4 leukemia): 8.46 µM
TGI (MOLT-4 leukemia): > 100 µM
GI50 (RXF 393 renal): 32.3 µM
TGI (RXF 393 renal): > 100 µM
GI50 (MCF7 breast): 30.9 µM
TGI (MCF7 breast): > 100 µM
GI50 (UACC-62 melanoma): 27.7 µM
TGI (UACC-62 melanoma): > 100 µM
GI50 (HOP-62 NSCLC): 34 µM
TGI (HOP-62 NSCLC): 61.2 µM
GI50 (SNB-19 CNS): 43 µM
TGI (SNB-19 CNS): > 100 µM
GI50 (ACHN renal): 28.3 µM
TGI (ACHN renal): 82 µM

COc1ccc(OC)c([N+](=O)[O-])c1-c1nc2sc(C)c(C)n2c1/C=N/N=C(N)N
TGI (OVCAR-8 ovarian): > 100 µM
TGI (NCI-H522 lung): > 100 µM
TGI (SK-MEL-5 melanoma): > 100 µM
TGI (PC-3 prostate): > 100 µM
TGI (MDA-MB-231 breast): > 100 µM
TGI (HCT-116 colon): > 100 µM
TGI (OVCAR-3 ovarian): > 100 µM
TGI (UACC-257 melanoma): > 100 µM
TGI (MALME-3M melanoma): > 100 µM
TGI (IGROV1 ovarian): > 100 µM
TGI (K-562 leukemia): > 100 µM
TGI (CCRF-CEM leukemia): > 100 µM
TGI (SF-539 CNS): > 100 µM
TGI (NCI-H226 lung): > 100 µM
TGI (OVCAR-5 ovarian): > 100 µM
TGI (HT29 colon): > 100 µM
TGI (A549 NSCLC): > 100 µM
TGI (HL-60(TB) leukemia): 64.9 µM
TGI (SK-MEL-28 melanoma): > 100 µM
TGI (SF-268 CNS): > 100 µM
TGI (SR leukemia): > 100 µM
TGI (SW-620 colon): > 100 µM
TGI (SF-295 CNS): > 100 µM
TGI (LOX IMVI melanoma): > 100 µM
TGI (T-47D breast): 61.2 µM
TGI (NCI-H460 lung): > 100 µM
TGI (KM12 colon): 50.9 µM
TGI (UO-31 renal): > 100 µM
TGI (HCT-15 colon): > 100 µM
TGI (EKVX NSCLC): > 100 µM
TGI (BT-549 breast): 57.7 µM
TGI (SN12C renal): > 100 µM
TGI (M14 melanoma): > 100 µM
TGI (COLO 205 colon): > 100 µM
TGI (NCI-H23 lung): > 100 µM
TGI (RPMI-8226 leukemia): 89.9 µM
TGI (SK-MEL-2 melanoma): 40.5 µM
TGI (CAKI-1 renal): > 100 µM
TGI (U251 CNS): > 100 µM
TGI (A498 renal): > 100 µM
TGI (TK-10 renal): > 100 µM
TGI (786-0 renal): > 100 µM
TGI (DU-145 prostate): > 100 µM
TGI (HCC-2998 colon): > 100 µM
TGI (NCI/ADR-RES ovarian): > 100 µM
TGI (HOP-92 NSCLC): > 100 µM
TGI (MDA-MB-435): > 100 µM
TGI (OVCAR-4 ovarian): > 100 µM
TGI (HS 578T breast): > 100 µM
TGI (MOLT-4 leukemia): 40.4 µM
TGI (RXF 393 renal): > 100 µM
TGI (MCF7 breast): 79.5 µM
TGI (UACC-62 melanoma): > 100 µM
TGI (HOP-62 NSCLC): > 100 µM
TGI (SNB-19 CNS): > 100 µM
TGI (ACHN renal): > 100 µM

Reference: PubChem BioAssay (NCI)
